# Key:
# Zscan4 [1] = assay: Time-course of Emerald GFP+ (Zscan4+) cells by flow cytometry after retinoid treatment; format: cell-based, mouse; details: for day of peak of fraction of Zscan4+ cells / fraction of Zscan4+ cells / secondary increase of Zscan4+ cells: atRA, 9-cis RA, 13-cis RA 50 nM; for day of peak of fraction of Zscan4+ cells / secondary increase of Zscan4+ cells: vitamin A 5 μM; for fraction of Zscan4+ cells: vitamin A 5 μM final concentration, up to 7 days; for secondary increase of Zscan4+ cells: within 7 days of treatment
# Text: FIG. 9 is a line graph showing the percentage of Emerald cells following treatment of MC1-ZE7 cells in the presence or absence of leukemia inhibitory factor (LIF) and in the presence or absence of retinoic acid (RA). Cells were passaged to gelatin-coated plates in the presence of LIF (LIF+) and absence of atRA (atRA−). The next day (Day 0), the culture medium of each well was changed to four different conditions: LIF+ atRA−, LIF+ atRA+, LIF− atRA−, and LIF− atRA+. The cells were maintained in the same culture medium for 8 days with the medium changes every day, but without passaging. Cells were harvested every day and the number of Emerald GFP^+ cells was measured by flow cytometry.
# (§1) FIG. 10A is a line graph showing the effect of different retinoids (atRA, 9-cis RA, 13-cis RA or vitamin A) on the percentage of Zscan4^+ cells in culture. Shown is the percentage of Emerald^+ MC1-ZE-7 cells up to seven days following exposure to the retinoid. FIG. 10B is a line graph showing the effect of the different reintoids on ES cell proliferation.
# A 20 mM stock solution of all-trans retinoic acid (atRA) in ethanol was used at a final concentration of 1 μM, 2 μM, or 50 nM. 9-cis RA and 13-cis RA were used at a final concentration of […] final. Vitamin A (retinol) was used at a final concentration of 5 μM.
# Zscan4 Expression is Induced Transiently by all-Trans Retinoic Acid (atRA) Mouse ES cells (referred to as pZscan4-Emerald7 (MC1-ZE7) cells) in which a plasmid carrying a green fluorescent protein (Emerald: Em) regulated under the promoter of Zscan4c is integrated in the genome were used in these studies. […] Cells were first passaged to gelatin-coated plates in the presence of leukemia inhibitory factor (LIF+) and absence of atRA (atRA−). The next day (Day 0), the culture medium of each well was changed to four different conditions: LIF+ atRA−, LIF+ atRA+, LIF− atRA−, and LIF− atRA+. The final concentration of atRA was […]. The cells were maintained in the same culture medium for 8 days with medium changes every day, but without passaging. Cells were harvested every day and the number of Emerald GFP^+ cells was measured by flow cytometry (Guava).
# (§2) Although atRA is most commonly used for mammalian cell culture systems, there are other retinoids that sometimes have similar activities on the cells. To test other retinoids for Zscan4-inducibility, similar time-course kinetic assays were carried out using atRA (50 nM final concentration), 9-cis RA (50 nM final concentration), 13-cis RA (50 nM final concentration), or vitamin A (5 μM final concentration). […] Zscan4^+ cells may have growth advantages over Zscan4^− cells in the presence of vitamin A and 13-cis RA.
# MC1-ZE7 cells = assay: Effect of retinoids on ES cell proliferation; format: cell-based, mouse; details: atRA, 9-cis RA, 13-cis RA 50 nM, vitamin A 5 μM; up to 7 days
# Text: as §1, §2
# Zscan4 [2] = details: MC1-ZE7 cells, LIF+; H2O2 100 μM, 300 μM or 1000 μM; two days
# Protocol: MC1-ZE7 cells were cultured in standard ES cell medium (LIF+). […] The cells were cultured for two days and the fraction of Emerald^+ (i.e., Zscan4^+ cells) was measured by flow cytometry.
# MC1-ZE7 cells were cultured in standard ES cell medium (LIF+). […] The cells were cultured for two days and the percentage of Em^+ (i.e., Zscan4^+ cells) was determined by the Guava flow cytometry (Guava).
# ES cells = assay: Survival of ES cells after treatment with DNA-damaging agent (live cell count); format: cell-based, mouse; details: then 3 more days
# Protocol: FIGS. 12A and 12B are graphs showing survival of control ES cells (A) and tet-Zscan4 ES cells (B) after treatment with mitomycin C (MMC). Control ES cells contained a control plasmid (tet-Empty). Cells were cultured in standard ES medium (LIF+) and passaged into two groups: (1) in the absence of doxycycline (Dox) or (2) in the presence of Dox at a final concentration of 0.2 μg/ml. The Dox+ and Dox− media were changed every day. On the fourth day, the cells were cultured for 6 hours in the presence of MMC at a final concentration ranging from 0 to 600 ng/ml. MMC was removed from the culture by changing the media and cells were then incubated for 3 more days in the Dox+ medium, with the medium changed every day. Cells were harvested and the number of live cells was counted.
# Control cells (carrying the tet-Empty plasmid) and Zscan4-expressing cells (carrying the tet-Zscan4 plasmid) were used in this study. The cells were cultured in standard ES medium (LIF+). Cells were passaged into two groups: (1) in the absence of doxycycline (Dox−), or (2) in the presence of doxycycline (Dox+) at a final concentration of 0.2 μg/ml. The Dox+ and Dox− media were changed every day. On the fourth day, the cells were cultured for 6 hours in the presence of MMC at a final concentration ranging from 0 to 600 ng/ml. […] Cells were harvested and the number of live cells was counted.
# [3] = MC1-ZE7 cells, atRA 2 M (so in the source), LIF+ and LIF-
SMILES,day of peak of fraction of Zscan4+ cells (Zscan4 [1]; MC1-ZE7 cells) [days],fraction of Zscan4+ cells (Zscan4 [1]; MC1-ZE7 cells),secondary increase of Zscan4+ cells (Zscan4 [1]),effect on cell proliferation (MC1-ZE7 cells),number (percentage) of Zscan4+ (Em+) cells (Zscan4 [2]),"survival of Zscan4-expressing (tet-Zscan4) ES cells against the DNA-damaging agent, Dox- versus Dox+ (ES cells; Zscan4 induced by Dox removal, agent for 6 hours)","cell survival rate (ES cells; control (tet-Empty) ES cells, MMC 0 to 600 ng/ml for 6 hours)",decline of Zscan4+ cell induction to basal level (Zscan4 [1]; [3]),time of peak of Em+ (Zscan4+) cell fraction (Zscan4 [1]; [3]),"fraction of Em+ cells (i.e., Zscan4+ cells) in the culture (Zscan4 [1]; MC1-ZE7 cells, atRA 2 M (so in the source), LIF+ and LIF- conditions, 8 days, daily harvest)"
"CC1=C(/C=C/C(C)=C\C=C\C(C)=C\C(=O)O)C(C)(C)CCC1 [9-cis RA, 9-cis retinoic acid]",2,transiently increased,not,nearly complete suppression of cell proliferation,–,–,–,–,–,–
"CC1=C(/C=C/C(C)=C/C=C/C(C)=C\C(=O)O)C(C)(C)CCC1 [13-cis RA, 13-cis-retinoic acid]",2,transiently increased,observed,moderate suppression of cell proliferation,–,–,–,–,–,–
"OO [H2O2, Hydrogen peroxide]",–,–,–,–,increases the number of Zscan4^+ cells,–,–,–,–,–
"CO[C@@]12[C@H](COC(N)=O)C3=C(C(=O)C(C)=C(N)C3=O)N1C[C@@H]1N[C@@H]12 [MMC, mitomycin C]",–,–,–,–,–,increased survival,"the higher the dose of MMC, the lower the cell survival rate",–,–,–
"CC1=C(/C=C/C(C)=C/C=C/C(C)=C/C(=O)O)C(C)(C)CCC1 [atRA, all-trans retinoic acid]",2,transiently increased,not,nearly complete suppression of cell proliferation,–,–,–,declined to the basal level by the fourth day,peaked on the second day,dramatically induced
"CC1=C(/C=C/C(C)=C/C=C/C(C)=C/CO)C(C)(C)CCC1 [vitamin A, retinol]",2,transiently increased,observed,did not affect cell proliferation,–,–,–,–,–,–
